Assay results reported in paper PMC3174134, “Lucanthone and Its Derivative Hycanthone Inhibit Apurinic Endonuclease-1 (APE1) by Direct Protein Binding” (PLoS ONE, 2011).

Assays:
tubulin = assay: Tubulin stability in U251 1-5 whole cell extracts, Western blot; settings: lucanthone 2.5-100 µM; CRT at 200 µM
Protocol: (§1) Total purified protein concentration was determined by the ratio of A280/A260. 250 ng of APE1 treated with lucanthone or hycanthone (0.05–100 µM) for 2 h at 37°C in final volume of 30 µl were mixed with an equal volume of gel loading buffer (0.001% bromophenol blue, 4% SDS, 10% 2-ME, 20% glycerol, and 125 mM Tris pH 6.8) and denatured at 95°C for 5 min. Total protein concentration in cell extracts was determined using the Bradford assay (BioRad, Hercules, CA) and 25 µg of total protein from soluble or insoluble cell fractions were mixed with an equal volume of gel loading buffer (0.001% bromophenol blue, 4% SDS, 10% 2-ME, 20% glycerol, and 125 mM Tris pH 6.8) and denatured at 95°C for 5 min. This mixture was separated by SDS-PAGE (4% stacking, 7.5% resolving gel) for 2–3 h at 40 mA on a BioRad MiniPROTEAN II Electrophoresis Cell. To detect proteins, proteins were transferred onto a trans-Blot nitrocellulose membrane (0.45 µm; BioRad) overnight at 4°C at 15 mA in standard Tris-Glycine buffer containing 20% ethanol. […] Chemi-luminescence was developed using an ECL kit according to the manufacturer's instructions and detected by exposing the blot to HyperfilmECL for 30 s–3 min. […]

APE1 [1] = molecular target: T1, APE1 (Homo sapiens, UniProt P27695); assay: APE1 cleavage in whole cell extracts of U251 1-5 APE1 overexpressor clone, Western blot with protease inhibitor cocktail; set-up: the full length APE1 protein was successfully expressed and purified; made in house; host or cells: E. coli BL21/DE3; settings: U251 1-5 whole cell extracts, 2 h, 37°C
T1 sequence (P27695 whole entry): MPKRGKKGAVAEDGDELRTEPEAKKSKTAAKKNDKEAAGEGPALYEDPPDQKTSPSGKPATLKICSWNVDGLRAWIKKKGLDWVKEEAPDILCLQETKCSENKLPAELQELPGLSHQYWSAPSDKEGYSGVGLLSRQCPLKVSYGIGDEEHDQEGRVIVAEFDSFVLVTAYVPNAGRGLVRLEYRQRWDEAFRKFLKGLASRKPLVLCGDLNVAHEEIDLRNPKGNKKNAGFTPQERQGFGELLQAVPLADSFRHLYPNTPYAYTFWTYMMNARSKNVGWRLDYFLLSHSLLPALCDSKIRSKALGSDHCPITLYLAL
Protocol: as §1

APE1 [2] = molecular target: T1, APE1; assay: MALDI-TOF analysis of APE1 degradation; set-up: the full length APE1 protein was successfully expressed and purified; made in house; host or cells: E. coli BL21/DE3; settings: 100 µM drug
Protocol: 100 nM of APE1 protein was treated with 100 µM of lucanthone, hycanthone or CRT at 37°C for 2 h and 24 h and analyzed on sinipinic acid matrix on a Voyager-DE STR (Applied Biosystems) MALDI-TOF instrument at the Proteomics facility at SUNYSB in a linear mode.

Concentration causing cleavage of APE1 (APE1 [1]): 200 µM
Time at which APE1 degradation is seen by MALDI (APE1 [2]): 24 h
APE1 protein fragments by MALDI-TOF (APE1 [2]; 37°C, 2 or 24 h): much less cleavage of APE1
Full length 35.5 kDa APE1 peak by MALDI-TOF (APE1 [2]; 37°C, 24 h): still an intact 35.5 kDa peak
SMILES: O=C(O)c1cc2cccc([N+](=O)[O-])c2[nH]1 [CRT0044876, 7-Nitroindole-2-carboxylic acid]
Effect on tubulin protein (tubulin): some shift in its migration
